Key:
[1] = system: rats reduced learning ability by tetrabenazine; assay: Conditioned avoidance task in the shuttle box (tetrabenazine-treated rats); type: in vivo, rat; settings: tetrabenazine 1 mg/kg s.c., significance and direction
Method: The method described in Life Sci., 58, 817-827 (1996) was used. The effects on conditioned avoidance reflex (CARs) was analyzed in the shuttle box using male and female rats (weighing 200-220 g) whose leaning abilities were reduced by treatment of tetrabenazine. The instrument was constructed, according to the device described in Psychopharmacologia 10, 1-5 (1966) by the Research Institute for Electrical Industry (Budapest, Hungary). The male and female rats (weighing 200-220 g) were trained to cross the berrier under the influence of a conditioned stimulus (CS) (light flash and buzzer sounds). […] And the performance which was not related to this condition was noted as an intersignal reaction (IR). The rats were trained with 100 trials per day for 5 days. One trial consisted of 15 sec intertrial interval. The saline solution of tetrabenazine was administered at a dose of 1 mg/kg subcutaneously before one hour prior to the test and then the solution of the compounds of this invention were administered at the doses of 1, 2, 2.5 and 5 mg/kg subcutaneously with the simultaneous administration of tetrabenazine. The nmbers of CARs, EFs and IRs were automatically counted and evaluated by multi-way analysis of variance (ANOVA).

[2] = system: dopamine release, substantia nigra; assay: Release of biogenic amines from brain tissue: dopamine, substantia nigra; type: in vivo, Wistar rats
Method: (§1) The method described in Life Sci., 56, 611-620 (1995) was used. After Wistar rats were decapitated, appropriate brain samples, which were striatun, substantia nigra, tuberculum olfactorium, locus coeruleus and raphe, were removed quickly and soaked in oxygenated (95% O2 and 5% CO2) Krebs solution at 37° C. The composition of Krebs solution was as follows in […]: NaCl 111, KCl 4.7, CaCl2 2.5, MgSO4 1.64, NaHCO3 25, KH2 PO4 1.2, glucose 11, 50 mg/l ascorbic add and 20 mg/l EDTA-2 Na. The preparations, soaked in one organ bath, were as follows: 1) four pieces of striatum (each halved), 2) four pieces of substantia nigra, 3) four pieces of tuberculum olfactorium; 4) eight pieces of locus coeruleus; 5) eight pieces of raphe. After incubation of the appropriate tissue for 20 min, the Krebs solution was replaced, the tissue soaked for 20 min in Krebs solution dissolving the compounds of this invention and the amount of biogenic amine released during this period of time was estimate. The compounds of this invention and PPAP, control compound, were dissolved in saline and were administered subcutaneously before 30 min to removing brain sample. For measuring noradrenaline and dopamine, samples were purified on 60 mg alumina containing micro columns (BDH Chemicals Ltd.) according to the method described in J. Pharmacol. Exp. Ther., 138, 360-372 (1962) For measuring serotonin, samples were purified on 15 mg Sephadex G-10 micro columns (Pharmacia). Dopamine, noradrenaline and serotonin were determined by high performance liquid chromatography (Waters 746 data module) with electrochemical detection (Waters 460 electrochemical detector). Waters Resolve 5μ Spherical C18 3.9×150 mm column was used as separating column and triethylamine-phosphate buffer (pH 5.2), containing 200 mg/l octane sulfonate sodium and 18 mg/l EDTA-2 Na with 6% acetonitrile, was used as mobile phase. The release amount of appropriate amine was noted as nmol/g tissue released for 20 min. deference of means tested by Student's t-test and significant level was set at P<.05.

[3] = system: primary cultured hepatocyte; assay: Toxicity screening using primary cultured hepatocyte (LDH release); type: cell-based, rat; settings: 10 μM
Method: (§2) The hepatocytes was prepared from rat liver by collagenase perfusion method and suspension containing 5×10^5 cells/ml were prepared. After cultivation for 24 hr, the suspension was exchanged to the William's Medium E (GIBCO BRL) containing 10 or 100 μM of the compounds of this invention. After cultivation for 24 hr, the activity of lactate dehydrogenase (LDH) released in the medium was measured.

[4] = as above; type: cell-based, rat; settings: rat, primary hepatocytes, 24 hr, control 0.5% saline or 0.5% DMSO, read-out: Percent control of LDH release
Method: as §2

[5] = system: noradrenaline release, locus coeruleus; assay: Release of biogenic amines from brain tissue: noradrenaline, locus coeruleus; type: in vivo, Wistar rats
Method: as §1

[6] = system: dopamine release, striatum; assay: Release of biogenic amines from brain tissue: dopamine, striatum; type: in vivo, Wistar rats
Method: as §1

[7] = system: dopamine release, tuberculum olfactorium; assay: Release of biogenic amines from brain tissue: dopamine, tuberculum olfactorium; type: in vivo, Wistar rats
Method: as §1

[8] = system: serotonin release, raphe; assay: Release of biogenic amines from brain tissue: serotonin, raphe; type: in vivo, Wistar rats
Method: as §1

[9] = target: α1 receptor; assay: Affinity to α1 receptor; design: species or system rat; settings: read-out: Affinity to α1 receptor (MIC50; mole concentration for 50% inhibition of binding); 0.25 nM ^3H-prazocin; 90 min
Method: The solution of receptor was prepared as follows. As soon as rats were decapitated, brain was removed and its weight was measured. Its brain was homogenized in ten times volumes of ice-cold 0.35 M sucrose (pH 7.4) by glass homogenizer with teflon pestle which was revolted by motors. Thereafter, the homogenate was centrifuged at 4° C. at 900×g for 10 min and the supernatant was, furthermore, recentrifuged at 4° C. at 22,000×g for 20 min. The precipitate was suspended by addition of 5 mM phosphate buffer solution (pH 7.4). After the suspension was incubated at 37° C. for 30 min, the suspension was recentrifuged at 4° C. at 22,000×g for 20 min. The precipitate was resuspended by addition of 10 ml of 5 mM phosphate buffer solution (pH 8.0). The precipitate was used as the solution of receptor.
^3 H-prazocin was used as a ligand. 0.25 nM ^3 H-prazocin in 5 mM phosphate buffer (pH 8.0), the compound of this invention and the solution of receptor were added in tube and the mixture were incubated at 25° C. for 90 min. In addition, the […] binding was shown by binding value of ^3 H-prazocin under the coexistence with 0.1 μM prazocin. The binding reaction was carried out as follows. After ^3 H-prazocin (binding type: B) bound to receptor using glassfiberfilter (pore size: 0.5 μm, Whatman GF/C.) and free type of prazocin (free type: F) were separated with B/F separator (Brandel, USA), only the binding type of ^3 H-prazocin was collected. The binding type of ^3 H-prazocin absorbed to glass-fiber filter was washed with ice-cold saline solution and was remove to vial. After 10 ml of scintillation cocktail was added in it, the radioactivity was determined. From the binding inhibition rate of α1 receptor and ligand, affinity of the compounds of this invention to α1 receptor was measured.
If affinity of certain compound to a receptor is high, the binding ligand and receptor is inhibited.

[10] = target: α2 receptor; assay: Affinity to α2 receptor; design: species or system rat; settings: read-out: Affinity to α2 receptor (MIC50; mole concentration for 50% inhibition of binding); 0.7 nM ^3H-rauwolscine
[11] = target: T1, D1 receptor (Rattus norvegicus, UniProt P18901); assay: Affinity to D1 receptor; type: binding
T1 construct: The precipitate was used as the solution of receptor; from tissue; host or cells: rat brain (whole) crude membranes

[12] = target: T2, 5-HT2 receptor (Rattus norvegicus, UniProt P14842); assay: Affinity to 5-HT2 receptor; type: binding
T2 construct: The precipitate was used as the solution of receptor; from tissue; host or cells: rat brain (whole) crude membranes

[13] = target: 5-HT1 receptor; assay: Affinity to 5-HT1 receptor; design: species or system rat; settings: read-out: Affinity to 5-HT1 receptor (MIC50; mole concentration for 50% inhibition of binding); 2 nM ^3H-5-HT
[14] = target: D2 receptor; assay: Affinity to D2 receptor; design: species or system rat; settings: read-out: Affinity to D2 receptor (MIC50; mole concentration for 50% inhibition of binding); 2.0 nM spiperone

T2 sequence (P14842 whole entry): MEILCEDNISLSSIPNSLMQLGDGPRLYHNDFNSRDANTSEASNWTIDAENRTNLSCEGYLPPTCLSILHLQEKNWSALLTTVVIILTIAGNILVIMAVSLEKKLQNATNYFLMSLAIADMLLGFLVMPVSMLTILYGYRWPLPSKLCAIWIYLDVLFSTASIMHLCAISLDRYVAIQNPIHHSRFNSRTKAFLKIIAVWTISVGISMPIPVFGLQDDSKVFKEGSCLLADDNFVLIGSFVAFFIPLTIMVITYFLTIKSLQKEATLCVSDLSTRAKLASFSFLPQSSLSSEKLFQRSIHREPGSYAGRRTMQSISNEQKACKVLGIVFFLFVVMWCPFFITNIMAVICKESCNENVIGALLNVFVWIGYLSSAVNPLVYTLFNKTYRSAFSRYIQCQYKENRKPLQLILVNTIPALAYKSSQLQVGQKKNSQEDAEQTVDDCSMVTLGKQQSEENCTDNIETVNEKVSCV
T1 sequence (P18901 whole entry): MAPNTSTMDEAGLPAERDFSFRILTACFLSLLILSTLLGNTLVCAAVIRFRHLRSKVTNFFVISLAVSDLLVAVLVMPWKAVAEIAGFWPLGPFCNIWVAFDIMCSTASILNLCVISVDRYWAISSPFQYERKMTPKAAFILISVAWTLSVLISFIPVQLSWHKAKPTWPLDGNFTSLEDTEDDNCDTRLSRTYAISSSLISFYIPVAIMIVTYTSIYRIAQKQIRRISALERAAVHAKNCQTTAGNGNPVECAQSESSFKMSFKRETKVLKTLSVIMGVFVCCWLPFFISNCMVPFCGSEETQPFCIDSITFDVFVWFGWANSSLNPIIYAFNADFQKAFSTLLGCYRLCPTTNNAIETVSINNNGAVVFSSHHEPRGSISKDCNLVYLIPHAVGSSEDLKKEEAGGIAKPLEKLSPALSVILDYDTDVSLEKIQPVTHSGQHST

| Structure (SMILES) | Condition Avoidance Reflex (CARs) ([1]; 5 mg/kg s.c.) | Intersignal Reactions (IRs) ([1]; 5 mg/kg s.c.) | activity at 24 h, 10 µM [4] | activity at 24 h, 100 µM [4] | IC50 [9] | IC50 [10] | Condition Avoidance Reflex (CARs) ([1]; 1 mg/kg s.c.) | IC50 [11] | Release of dopamine, substantia nigra ([2]; 0.01 mg/kg s.c.) | Release of noradrenaline, locus coeruleus ([5]; 0.01 mg/kg s.c.) | Release of dopamine, striatum ([6]; 0.01 mg/kg s.c.) | Release of dopamine, tuberculum olfactorium ([7]; 0.01 mg/kg s.c.) | IC50 [12] | IC50 [13] | IC50 [14] | Release of serotonin, raphe ([8]; 0.01 mg/kg s.c.) | also measured |
| --- | --- | --- | --- | --- | --- | --- | --- | --- | --- | --- | --- | --- | --- | --- | --- | --- | --- |
| CCCNC(CCC)Cc1ccccc1 (racemic) [PPAP, 1-phenyl-2-propylaminopentane, reference compound] | **** .Arrow-up bold. | **** .Arrow-up bold. | 127 ± 5.45% | 152 ± 11.1% |  |  |  |  |  |  |  |  |  |  |  |  | Release of dopamine, substantia nigra ([2]; 0.25 mg/kg s.c.): 4.0 ± 0.24 nmol/g tissue, for 20 min; Release of dopamine, substantia nigra ([2]; 1.00 mg/kg s.c.): 4.0 ± 0.21 nmol/g tissue, for 20 min; LDH release, significance in words [3]: released LDH significantly; Release of noradrenaline, locus coeruleus ([5]; 0.25 mg/kg s.c.): 3.8 ± 0.30 nmol/g tissue, for 20 min; Release of noradrenaline, locus coeruleus ([5]; 1.00 mg/kg s.c.): 4.6 ± 0.15 nmol/g tissue, for 20 min; Release of dopamine, striatum ([6]; 0.25 mg/kg s.c.): 3.5 ± 0.19 nmol/g tissue, for 20 min; Release of dopamine, striatum ([6]; 1.00 mg/kg s.c.): 3.6 ± 0.19 nmol/g tissue, for 20 min; Release of dopamine, tuberculum olfactorium ([7]; 0.25 mg/kg s.c.): 3.7 ± 0.10 nmol/g tissue, for 20 min; Release of dopamine, tuberculum olfactorium ([7]; 1.00 mg/kg s.c.): 3.2 ± 0.21 nmol/g tissue, for 20 min; Release of serotonin, raphe ([8]; 0.25 mg/kg s.c.): 0.416 ± 0.03 nmol/g tissue, for 20 min; Release of serotonin, raphe ([8]; 1.00 mg/kg s.c.): 0.741 ± 0.01 nmol/g tissue, for 20 min |
| CCCNC(CCC)Cc1cccc2[nH]ccc12.Cl (stereo not shown) [Compound No. 21, 1-(Indol-4-yl)-2-propylaminopentane Hydrochloride] |  |  | 110 ± 4.42% | 130 ± 9.68% | > 10 µM | 0.7 µM | **** .Arrow-up bold. | > 10 µM | 10.0 ± 0.30 nmol/g tissue, for 20 min | 4.6 ± 0.40 nmol/g tissue, for 20 min | 5.4 ± 0.17 nmol/g tissue, for 20 min | 7.4 ± 0.15 nmol/g tissue, for 20 min | > 10 µM | > 10 µM | > 10 µM | 0.354 ± 0.00 nmol/g tissue, for 20 min | Condition Avoidance Reflex (CARs) ([1]; 0.5 mg/kg s.c.): ** .Arrow-up bold. |
| C#CCN(C)[C@H](C)Cc1ccccc1 [Selegiline, reference compound] |  |  |  |  | > 10 µM | 2 µM |  |  |  |  |  |  | > 10 µM | > 10 µM | > 10 µM |  |  |
| CCCNC(CCC)Cc1cc2ccccc2o1.Cl (stereo not shown) [Compound No. 25, 1-(Benzofuran-2-yl)-2-propylaminopentane Hydrochloride] | **** .Arrow-up bold. | * .Arrow-up bold. | 90.3 ± 2.85% | 112 ± 37% | > 10 µM | 1 µM | **** .Arrow-up bold. | > 10 µM | 6.6 ± 0.04 nmol/g tissue, for 20 min | 4.3 ± 0.20 nmol/g tissue, for 20 min | 5.3 ± 0.14 nmol/g tissue, for 20 min | 6.5 ± 0.20 nmol/g tissue, for 20 min | 20 µM | > 10 µM | > 10 µM | 0.457 ± 0.04 nmol/g tissue, for 20 min | Escape Failures (EFs) ([1]; 1 mg/kg s.c.): * .dwnarw. |
| CC(C)C[C@H]1C(=O)N2CCC[C@H]2[C@]2(O)O[C@](NC(=O)[C@@H]3C=C4c5cccc6[nH]c(Br)c(c56)C[C@H]4N(C)C3)(C(C)C)C(=O)N12 [Bromocriptine, reference compound] |  |  |  |  | 0.01 µM | 0.1 µM |  | 10 µM |  |  |  |  | 1 µM | 0.1 µM | 0.01 µM |  |  |

Reference: patent US6214859A, “Ethylamine derivatives” (Fujimoto Brothers Co., Ltd., priority 1997, dated 2001)
